Literature values in US8765197B2, “Extract of herbal and composition containing the same” (Dong-A-Pharm, Co., Ltd., priority 2006, dated 2014).

Test system: functional dyspepsia

## COc1cc(N)c(Cl)cc1C(=O)NC1CCN(CCCOc2ccc(F)cc2)CC1OC (centres unmarked) [cisapride]
Administered for 4 to 8 weeks
  cases in which effective: more than 70%
Functional dyspepsia, placebo 27-53%
  response rate: 50-82%
